Reference: article PMC4560162, “Discovery of small molecule inhibitors of xyloglucan endotransglucosylase (XET) activity by high-throughput screening” (Phytochemistry, 2015)
pIC50: −log10 of the molar value. “And” between values parts separate entries of the source, which are not always exact repeats. Identical values can stand only once. Like-named read-outs stand apart in the source and are kept apart here.

Tests used:
parsley XET activity = assay: Radiochemical XET assay (soluble xyloglucan + [3H]XXXGol); format: biochemical; settings: for effect on XET activity, radiochemical re-screen of 206 compounds (mostly LATCA): LATCA approx. 25 μM, EDI approx. 200 μg/ml, listed in order of decreasing effectiveness; for pIC50: read-out: IC50 (concentration required for 50% inhibition of XET activity), radiochemical assay, 20 °C; for pIC50 / effect on XET activity in radiochemical assays (as summarised in the discussion): soluble xyloglucan, laboratory light; for effect on XET activity in radiochemical assays (as summarised in the discussion): free solution; for effect on XET activity, first radiochemical re-screen of EDI hits: most xenobiotics at 200 μg/ml (≈200–800 μM)
Experimental: The parsley enzyme concentration was held constant, and the xenobiotics were tested at 200, 160, 120, 80, 40, 20, 10 and 0 μg/ml (concentrations in the final reaction mixture). Other details were as above.
The riboflavin-free controls received the same DMSO concentration.

[1] = system: Zea cell-suspension cultures; assay: Membrane function ([14C]proline uptake) in Zea culture; format: cell-based, Zea mays; settings: 4 d after xenobiotic
[2] = system: nine other cell-wall enzyme activities; assay: Dot-blot assays for nine additional wall enzyme activities; format: biochemical, parsley and lucerne (alfalfa); settings: xenobiotic 200 mg/l
Experimental: Radiolabelled oligosaccharide ([1-^3H]Gal12-ol or [1-^3H]Xyl6-ol; 1 kBq; containing a trace of Orange G) was dried into each well of a 96-well plate. […] The mixture was incubated for 24 h (for Gal12-ol) or 48 h (for Xyl6-ol), then the 5-μl reaction mixture was dried onto each position on a piece of plain Whatman No. 1 paper in 96-well format. Visual inspection of the Orange G verified that the samples had been correctly applied to the paper. […] Thus, in this assay, radioactive spots reveal inhibition of the enzyme.

[3] = system: Petroselinum xyloglucan endotransglucosylase (XET) activity; assay: Fluorescent dot-blot XET screen (cellulose-bound xyloglucan + XGO–SR on paper, in the dark); format: biochemical, parsley; settings: for effect on XET activity in dot-blot (inhibition / promotion): EDI 0.4 mg/ml, LATCA 50 μM, 2 h, dark, cellulose-bound xyloglucan
Experimental: For inhibitor screening, 53 new 96-well plates were set up with 50 μl of parsley enzyme extract per well, and 1 μl of DMSO-solubilised xenobiotic was added to each well, giving concentrations of 0.4 mg/ml (EDI collection, with exceptions noted in Table S2) or 50 μM (LATCA collection) and 2% v/v DMSO.
XET test-paper was prepared as before ([Fry, 1997]) and 112 × 75-mm sheets were attached to cellulose acetate overhead-projector sheets with ‘Spraymount’ adhesive. Each sheet was placed on a pre-cooled glass plate in a cold room at 4 °C.
For inhibitor screening (Fig. 2), 4 μl of a parsley enzyme/xenobiotic mixture was applied to each position on a sheet. Incubation at 20 °C for 2 h, washing, drying and photography were conducted essentially as above.

[4] = system: Rosa cell-suspension cultures; assay: Membrane function ([14C]proline uptake) in Rosa culture; format: cell-based, Rosa ("Paul's Scarlet" rose); settings: 4 d after xenobiotic
Experimental: Before testing the effects of XET-inhibitors on cell expansion, we defined their non-toxic concentrations. The eight XET-inhibiting xenobiotics mentioned in §2.7 were tested for cytotoxicity in cultured Rosa and Zea cells, by simple tests of the compounds’ ability to inhibit membrane and ribosome function based on [^14C]proline uptake and incorporation. In xenobiotic-free control 4-d-old Rosa cultures, 93.3% and 94.3% of the supplied [^14C]proline was absorbed from the medium within 2 and 4 h respectively, indicating healthy membrane function. In xenobiotic-free 4-d-old Zea cultures, the corresponding figures were 93.9% and 92.5%. By 4 h, 5.5% of the total [^14C]proline supplied had been incorporated into protein by Rosa and 9.3% by Zea cells, indicating healthy ribosome function. Against these control rates, we recorded any inhibition of membrane and ribosome function by the xenobiotics (Fig. 8). Each xenobiotic was tested at two concentrations (¼ and ^1/20 of the lowest non-tolerated concentration), which had been selected on the basis of preliminary experiments with a dilution series of the xenobiotic.
Eight xenobiotics that inhibited XET activity were selected for biological testing. Mini-cultures [2 ml, 5% (v/v) SCV; transferred from a standard culture 7 d after sub-culturing] were incubated in 12-well tissue culture microplates with the lids closed loosely. Xenobiotics were added as concentrated stocks in DMSO (final DMSO concentration 2%), and incubation was continued aseptically under standard conditions of temperature, lighting and shaking. After 4 d, 1 kBq of [^14C]proline was added per mini-culture. […] The culture was brought up to 10 ml with water and the settled and packed cell volumes (SCV, PCV) were then measured ([Fry and Street, 1980]). […] After 0.5 h at 100 °C, a 100-μl aliquot of the centrifuged SDS-extract was dried onto Whatman No. 3 paper, which was then washed in 75% ethanol supplemented with 0.5% acetic acid, thus removing free [^14C]proline and its low-Mr metabolites if any; radioactivity remaining on the paper ([^14C]protein) was then assayed.

[5] = system: Zea cell-suspension cultures; assay: Cell expansion (SCV, PCV) in Zea cell-suspension culture; format: cell-based, Zea mays; settings: for concentration inhibiting growth (PCV) without membrane impairment: Zea, 4 d incubation
Experimental: (§1) Cell-suspension cultures of “Paul’s Scarlet” rose [a complex hybrid; genus Rosa; isolated in October 1957 from sections of young stem material; [Nickell and Tulecke, 1959]) and maize (Zea mays L., Black Mexican Sweetcorn, donated by Dr. I. Moore, Department of Botany, University of Edinburgh) were grown under constant dim illumination (10 μmol m^−2 s^−1) on an orbital shaker at 25 °C. Rose cells were maintained as described by [Chormova et al. (2014)] and maize cells as described by [Kerr and Fry (2003)].
(§2) Eight xenobiotics that inhibited XET activity were selected for biological testing. Mini-cultures [2 ml, 5% (v/v) SCV; transferred from a standard culture 7 d after sub-culturing] were incubated in 12-well tissue culture microplates with the lids closed loosely. Xenobiotics were added as concentrated stocks in DMSO (final DMSO concentration 2%), and incubation was continued aseptically under standard conditions of temperature, lighting and shaking. After 4 d, 1 kBq of [^14C]proline was added per mini-culture. A small volume of medium (50 μl) was sampled 2 and 4 h after [^14C]proline addition and assayed for remaining extracellular ^14C. The culture was brought up to 10 ml with water and the settled and packed cell volumes (SCV, PCV) were then measured ([Fry and Street, 1980]). Most of the culture medium was then removed and the cells were finally killed by addition of 0.5 ml of 6% SDS. After 0.5 h at 100 °C, a 100-μl aliquot of the centrifuged SDS-extract was dried onto Whatman No. 3 paper, which was then washed in 75% ethanol supplemented with 0.5% acetic acid, thus removing free [^14C]proline and its low-Mr metabolites if any; radioactivity remaining on the paper ([^14C]protein) was then assayed.

[6] = target: cyclic-AMP-dependent protein kinase, PKA; design: method as in Losiewicz et al., 1994; settings: ref Losiewicz et al., 1994; cited from earlier work
[7] = system: Rosa cell-suspension cultures; assay: Cell expansion (SCV, PCV) in Rosa cell-suspension culture; format: cell-based, Rosa ("Paul's Scarlet" rose); settings: for concentration inhibiting growth (PCV) without membrane impairment: Rosa, 4 d incubation
Experimental: as §1, §2

Cc1cc2nc3c(=O)[nH]c(=O)nc-3n(C[C@H](O)[C@H](O)[C@H](O)CO)c2cc1C [riboflavin]
[3H]Xyloglucan formed, Low light (parsley XET activity; 0.5 mM riboflavin, 0.2 lux, 2 h, control without riboflavin 8861 ± 105, mean ± SE of 4): 5390 ± 130 cpm
[3H]Xyloglucan formed, High light (parsley XET activity; 0.5 mM riboflavin, 1100 lux, 2 h, control without riboflavin 8942 ± 349, mean ± SE of 4): 807 ± 63 cpm
effect on XET activity, radiochemical re-screen of 206 compounds (mostly LATCA) (parsley XET activity): inhibition
pIC50 (parsley XET activity; 2 h): 4.54 and ~4.52
membrane function ([1]; at the concentrations tested): impaired
number of the nine other wall enzyme activities inhibited [2]: eight

COC(=O)/C(=C1/OC(=O)C(c2ccccc2)=C1O)c1ccccc1 [vulpinic acid]
effect on XET activity in radiochemical assays (as summarised in the discussion) (parsley XET activity): inhibitor
effect on XET activity in dot-blot (inhibition / promotion) [3]: did not show inhibitory effects
number of the nine other wall enzyme activities inhibited [2]: two
membrane function ([4]; at the concentrations tested): impaired

COc1c(C)c2c(c(O)c1C/C=C(\C)CCC(=O)O)C(=O)OC2 [mycophenolic acid]
membrane function ([1]; higher tested concentration): impaired
concentration inhibiting growth (PCV) without membrane impairment [5]: 60 µM

CN1CC[C@H](c2c(O)cc(O)c3c(=O)cc(-c4ccccc4Cl)oc23)[C@H](O)C1 [flavopiridol]
pIC50 [6]: 3.84

O=C(O[C@@H]1Cc2c(O)cc(O)cc2O[C@@H]1c1cc(O)c(O)c(O)c1)c1cc(O)c(O)c(O)c1 [epigallocatechin gallate, (−)-epigallocatechin gallate]
pIC50 (parsley XET activity; 2 h): ~3.40
effect on XET activity in radiochemical assays (as summarised in the discussion) (parsley XET activity): inhibited
membrane function ([1]; higher tested concentration): impaired
concentration inhibiting growth (PCV) without membrane impairment [5]: 40 µM
effect on XET activity in dot-blot (inhibition / promotion) [3]: promoted
effect on XET activity in dot-blot (inhibition / promotion) ([3]; listed as (−)-epigallocatechin gallate): coagulating promoter
coagulation ('type c' effect) in dot-blot ([3]; EDI collection, 0.4 mg/ml in enzyme mixture): coagulation
concentration inhibiting growth (PCV) without membrane impairment [7]: 870 µM
number of the nine other wall enzyme activities inhibited [2]: eight

O=c1c2ccccc2[se]n1-c1ccccc1 [ebselen]
effect on XET activity, radiochemical re-screen of 206 compounds (mostly LATCA) (parsley XET activity): inhibition
concentration inhibiting growth (PCV) without membrane impairment [5]: 70 µM
effect on XET activity in dot-blot (inhibition / promotion) [3]: XET inhibitor

CC1=C(/C=C/C(C)=C/C=C/C(C)=C\C(=O)O)C(C)(C)CCC1 [13-cis-retinoic acid]
effect on XET activity, radiochemical re-screen of 206 compounds (mostly LATCA) (parsley XET activity): inhibition
membrane function ([1]; at the concentrations tested): only slightly
effect on XET activity in dot-blot (inhibition / promotion) [3]: did not show inhibitory effects
membrane function ([4]; higher tested concentration): impaired

CCOc1ccc(Nc2ccc(/C(=C3C=C/C(=[N+](/CC)Cc4cccc(S(=O)(=O)[O-])c4)C=C/3C)c3ccc(N(CC)Cc4cccc(S(=O)(=O)O)c4)cc3C)cc2)cc1 [brilliant blue G]
effect on XET activity, first radiochemical re-screen of EDI hits (parsley XET activity): inhibitory
membrane function ([1]; higher tested concentration): impaired
concentration inhibiting growth (PCV) without membrane impairment [5]: 100 µM
number of the nine other wall enzyme activities inhibited [2]: three
membrane function ([4]; higher tested concentration): impaired

erythrosin B
effect on XET activity, radiochemical re-screen of 206 compounds (mostly LATCA) (parsley XET activity): inhibition
effect on XET activity, first radiochemical re-screen of EDI hits (parsley XET activity): inhibitory
pIC50 (parsley XET activity; 2 h): 4.44
pIC50 (parsley XET activity; 2 h, listed as erythrosin B): ~4.52
membrane function ([1]; at the concentrations tested): impaired
concentration that inhibited cell expansion / culture growth (abstract) ([5]; Zea cell-suspension culture): 1 µM
concentration that inhibited cell expansion (abstract) ([7]; Rosa cell-suspension culture): 1 µM
concentration inhibiting growth (PCV) without membrane impairment [7]: 1.1 µM
